Assay: mn = molality of the nth substance listed, in mol/kg
Settings: 100 kPa, Liquid; for speed of sound: Frequency=3 MHz, Sing-around technique in a fixed-path interferometer; for mass density: Vibrating tube method

O=C([O-])CC(O)(CC(=O)[O-])C(=O)[O-].[K+].[K+].[K+] [potassium citrate] + O
Settings	mass density, 288.15 K [kg/m3]	mass density, 298.15 K [kg/m3]	mass density, 308.15 K [kg/m3]	mass density, 318.15 K [kg/m3]	speed of sound, 288.15 K [m/s]	speed of sound, 298.15 K [m/s]	speed of sound, 308.15 K [m/s]	speed of sound, 318.15 K [m/s]
m1 = 0.2	1036.81	1034.22	1030.82	1026.73	1505.5	1533	1553.9	1568.9
m1 = 0.4	1073.44	1070.41	1066.68	1062.34	1544.3	1569.1	1587.9	1601.3
m1 = 0.6	1128.01	1124.42	1120.28	1115.69	1604	1625.9	1641.7	1652.5

From the NIST ThermoML archive (doi:10.1021/acs.jced.5b00933)
